Structures can show the parent of a compound that is named as a salt.
Row | melting point | Compound
1 | 240 to 242 °C (dec.) | O=C(O)CN1CCN(CCNc2ncc3ncnc(Nc4ccc(F)c(Cl)c4)c3n2)CC1 [Example 1(13), 4-[(3-chloro-4-fluorophenyl)amino]-6-{2-[4-(carboxymethyl)piperazin-1-yl]ethylamino}pyrimido[5,4-d]pyrimidine]
2 | 126 to 128 °C | COC(=O)CCN(C)[C@H]1CC[C@H](Nc2ncc3ncnc(Nc4ccc(F)c(Cl)c4)c3n2)CC1 [Example 2(8), 4-[(3-chloro-4-fluorophenyl)amino]-6-[(trans-4-{N-[2-(methoxycarbonyl)ethyl]-N-methylamino}cyclohex-1-yl)amino]pyrimido[5,4-d]pyrimidine]
3 | 217 to 221 °C | CN(CCCC(=O)O)[C@H]1CC[C@H](Nc2ncc3ncnc(Nc4ccc(F)c(Cl)c4)c3n2)CC1 [Example 1(5), 4-[(3-chloro-4-fluorophenyl)amino]-6-({trans-4-[N-(3-carboxypropyl)-N-methylamino]cyclohex-1-yl}amino)pyrimido[5,4-d]pyrimidine]
4 | 201 to 205 °C (dec.) | O=C(O)CN[C@H]1CC[C@H](Nc2ncc3ncnc(Nc4ccc(F)c(Cl)c4)c3n2)CC1 [Example 1(27), 4-[(3-chloro-4-fluorophenyl)amino]-6-({trans-4-[(carboxymethyl)amino]cyclohex-1-yl}amino)pyrimido [5,4-d]pyrimidine]
5 | 193 °C | COC(=O)CC(C(=O)OC)N1CCC(Nc2ncc3ncnc(Nc4cccc(Br)c4)c3n2)CC1 (stereo not shown) (as salt: maleate) [Example 6(4), 4-[(3-bromophenyl)amino]-6-({1-[1,2-bis(methoxycarbonyl)ethyl]piperidin-4-yl}amino)pyrimido[5,4-d]pyrimidine]
6 | 151 to 154 °C | COC(=O)C1CCCN1CC1CCN(c2ncc3ncnc(Nc4ccc(F)c(Cl)c4)c3n2)CC1 (stereo not shown) [Example 2(21), 4-[(3-chloro-4-fluorophenyl)amino]-6-(4-{[2-(methoxycarbonyl)pyrrolidin 1-yl]methyl}piperidin-1-yl)pyrimido[5,4-d]pyrimidine]
7 | 160 °C (dec.) | CC1(NCC(=O)O)CCN(c2ncc3ncnc(Nc4ccc(F)c(Cl)c4)c3n2)CC1 [Example 1(32), 4-[(3-chloro-4-fluorophenyl)amino]-6-{4-methyl-4-[(carboxymethyl)amino]piperidin-1-yl}pyrimido[5,4-d]pyrimidine]
8 | 145 to 149 °C | CCOC(=O)CN1CCN(CC2CCN(c3ncc4ncnc(Nc5ccc(F)c(Cl)c5)c4n3)CC2)CC1 [Example 2(22), 4-[(3-chloro-4-fluorophenyl)amino]-6-[4-({4-[(ethoxycarbonyl)methyl]piperazin-1-yl}methyl)piperidin-1-yl]pyrimido[5,4-d]pyrimidine]
9 | 135 to 137 °C | COC(=O)CCCN1CCC(Nc2ncc3ncnc(Nc4ccc(F)c(Cl)c4)c3n2)CC1 [Example 2(6), 4-[(3-chloro-4-fluorophenyl)amino]-6-({1-[3-(methoxycarbonyl)propyl]piperidin-4-yl}amino)pyrimido[5,4-d]pyrimidine]
10 | 209 to 214 °C | O=C(O)CCNCC1CCN(c2ncc3ncnc(Nc4ccc(F)c(Cl)c4)c3n2)CC1 [Example 1(16), 4-[(3-chloro-4-fluorophenyl)amino]-6-(4-{[(2-carboxyethyl)amino]methyl}piperidin1-yl)pyrimido[5,4-d]pyrimidine]
11 | 135 to 137 °C | CCCOC(=O)CN1CCC(Nc2ncc3ncnc(Nc4ccc(F)c(Cl)c4)c3n2)CC1 [Example 2(2), 4-[(3-chloro-4-fluorophenyl)amino]-6-({1-[(propyloxycarbonyl)methyl]piperidin-4-yl}amino)pyrimido[5,4-d]pyrimidine]
12 | 132 °C | CCOC(=O)CC(CC(=O)OCC)N1CCC(Nc2ncc3ncnc(Nc4cccc(Br)c4)c3n2)CC1 [Example 6(5), 4-[(3-bromophenyl)amino]-6-[(1-{1-[(ethoxycarbonyl)methyl]-2-(ethoxycarbonyl)ethyl}piperidin-4-yl)amino]pyrimido-[5,4-d]pyrimidine]
13 | 160 to 169 °C | O=C(O)CCN(CCC(=O)O)CC1CCN(c2ncc3ncnc(Nc4ccc(F)c(Cl)c4)c3n2)CC1 [Example 1(19), 4-[(3-chloro-4-fluorophenyl)amino]-6-(4-{[N,N-bis(2-carboxyethyl)amino]methyl}piperidin-1-yl)pyrimido[5,4-d]pyrimidine]
14 | 136 to 138 °C | CCOC(=O)CN1CCC(Nc2ncc3ncnc(Nc4ccc(F)c(Cl)c4)c3n2)CC1 [Example 2, 4-[(3-chloro-4-fluorophenyl)amino]-6-({1-[(ethoxycarbonyl)methyl]piperidin-4-yl}amino)pyrimido[5,4-d]pyrimidine]
15 | 217 to 225 °C | O=C(O)CCN1CCC(Nc2ncc3ncnc(Nc4ccc(F)c(Cl)c4)c3n2)CC1 [Example 1(1), 4-[(3-chloro-4-fluorophenyl)amino]-6-{[1-(2-carboxyethyl)piperidin-4-yl]amino}pyrimido[5,4-d]pyrimidine]
16 | 175 to 177 °C | CC(C)OC(=O)CN1CCC(Nc2ncc3ncnc(Nc4ccc(F)c(Cl)c4)c3n2)CC1 [Example 2(3), 4-[(3-chloro-4-fluorophenyl)amino]-6-({1-[(isopropyloxycarbonyl)methyl]piperidin-4-yl}amino)pyrimido[5,4-d]pyrimidine]
17 | 136 to 137 °C | COC(=O)CCN1CCC(Nc2ncc3ncnc(Nc4ccc(F)c(Cl)c4)c3n2)CC1 [Example 2(5), 4-[(3-chloro-4-fluorophenyl)amino]-6-({1-[2-(methoxycarbonyl)ethyl]piperidin-4-yl}amino)pyrimido[5,4-d]pyrimidine]
18 | 111 to 145 °C | O=C(O)CCN1CCN(c2ncc3ncnc(Nc4ccc(F)c(Cl)c4)c3n2)CC1 [Example 1(7), 4-[(3-chloro-4-fluorophenyl)amino]-6-[4-(2-carboxyethyl)piperazin-1-yl]pyrimido[5,4-d]pyrimidine]
19 | 166 to 168 °C | COC(=O)CCC1CCN(C2CCN(c3ncc4ncnc(Nc5ccc(F)c(Cl)c5)c4n3)C2)CC1 (stereo not shown) [Example 2(16), 4-[(3-chloro-4-fluorophenyl)amino]-6-(3-{4-[2-(methoxycarbonyl)ethyl]piperidin-1-yl}-pyrrolidin-1-yl)pyrimido[5,4-d]pyrimidine]
20 | 245 °C (dec.) | O=C(O)CN(CC(=O)O)[C@H]1CC[C@H](Nc2ncc3ncnc(Nc4ccc(F)c(Cl)c4)c3n2)CC1 [Example 1(18), 4-[(3-chloro-4-fluorophenyl)amino]-6-({trans-4-[N,N-bis(carboxymethyl)amino]cyclohex-1-yl}amino)pyrimido[5,4-d]pyrimidine]
21 | 99 to 102 °C | COC(=O)CCCN(C)[C@H]1CC[C@H](Nc2ncc3ncnc(Nc4ccc(F)c(Cl)c4)c3n2)CC1 [Example 2(9), 4-[(3-chloro-4-fluorophenyl)amino]-6-[(trans-4-{N-[3-(methoxycarbonyl)propyl]-N-methylamino}cyclohex-1-yl)amino]pyrimido[5,4-d]pyrimidine]
22 | 140 to 142 °C | COC(=O)CCN1CCN(c2ncc3ncnc(Nc4ccc(F)c(Cl)c4)c3n2)CC1 [Example 2(11), 4-[(3-chloro-4-fluorophenyl)amino]-6-[4-[2-(methoxycarbonyl)ethyl]piperazin-1-yl]pyrimido[5,4-d]pyrimidine]

From US20020082420A1, “Bicyclic heterocycles, pharmaceutical compositions containing them, their use, and processes for preparing them” (priority 2000, published 2002)
